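Assay format: 96-well plates, 48-hour exposure. At the TGI there is no net growth.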
Columns and labels:
Assay in all cases: growth of human tumour cells (NCI), 48 h
SNB-19 CNS = tested on: SNB-19 CNS
NCI-H522 lung = tested on: NCI-H522 lung
U251 CNS = tested on: U251 CNS
UACC-257 melanoma = tested on: UACC-257 melanoma
OVCAR-4 ovarian = tested on: OVCAR-4 ovarian
A549 NSCLC = tested on: A549 NSCLC
SF-539 CNS = tested on: SF-539 CNS
NCI-H23 lung = tested on: NCI-H23 lung
MALME-3M melanoma = tested on: MALME-3M melanoma
NCI-H460 lung = tested on: NCI-H460 lung
SK-OV-3 ovarian = tested on: SK-OV-3 ovarian
HT29 colon = tested on: HT29 colon
SNB-78 CNS = tested on: SNB-78 CNS
ACHN renal = tested on: ACHN renal
K-562 leukemia = tested on: K-562 leukemia
LOX IMVI melanoma = tested on: LOX IMVI melanoma
TK-10 renal = tested on: TK-10 renal
DMS 273 small cell lung = tested on: DMS 273 small cell lung
A498 renal = tested on: A498 renal
786-0 renal = tested on: 786-0 renal
XF 498 CNS = tested on: XF 498 CNS
SF-268 CNS = tested on: SF-268 CNS
SNB-75 CNS = tested on: SNB-75 CNS
LXFL 529 NSCLC = tested on: LXFL 529 NSCLC
UACC-62 melanoma = tested on: UACC-62 melanoma
SF-295 CNS = tested on: SF-295 CNS
SK-MEL-28 melanoma = tested on: SK-MEL-28 melanoma
M14 melanoma = tested on: M14 melanoma
SN12C renal = tested on: SN12C renal
KM12 colon = tested on: KM12 colon
NCI-H226 lung = tested on: NCI-H226 lung
OVCAR-3 ovarian = tested on: OVCAR-3 ovarian
IGROV1 ovarian = tested on: IGROV1 ovarian
MOLT-4 leukemia = tested on: MOLT-4 leukemia
HL-60(TB) leukemia = tested on: HL-60(TB) leukemia
HOP-18 NSCLC = tested on: HOP-18 NSCLC
HCT-15 colon = tested on: HCT-15 colon
SK-MEL-2 melanoma = tested on: SK-MEL-2 melanoma
SK-MEL-5 melanoma = tested on: SK-MEL-5 melanoma
M19-MEL melanoma = tested on: M19-MEL melanoma
CCRF-CEM leukemia = tested on: CCRF-CEM leukemia
UO-31 renal = tested on: UO-31 renal
HCT-116 colon = tested on: HCT-116 colon
RXF 393 renal = tested on: RXF 393 renal
OVCAR-8 ovarian = tested on: OVCAR-8 ovarian
DMS 114 small cell lung = tested on: DMS 114 small cell lung
SW-620 colon = tested on: SW-620 colon
HOP-92 NSCLC = tested on: HOP-92 NSCLC
CAKI-1 renal = tested on: CAKI-1 renal
EKVX NSCLC = tested on: EKVX NSCLC
HCC-2998 colon = tested on: HCC-2998 colon
DLD-1 colon = tested on: DLD-1 colon
RPMI-8226 leukemia = tested on: RPMI-8226 leukemia
OVCAR-5 ovarian = tested on: OVCAR-5 ovarian
COLO 205 colon = tested on: COLO 205 colon
RXF-631 renal = tested on: RXF-631 renal
KM20L2 colon = tested on: KM20L2 colon
HOP-62 NSCLC = tested on: HOP-62 NSCLC
SR leukemia = tested on: SR leukemia

O=C(NN1C(=O)C(Cl)C1c1cccc(Cl)c1)c1ccccc1O (stereo not given)
TGI (SNB-19 CNS): > 100 µM | TGI (NCI-H522 lung): > 100 µM | TGI (U251 CNS): > 100 µM | TGI (UACC-257 melanoma): > 100 µM | TGI (OVCAR-4 ovarian): > 100 µM | TGI (A549 NSCLC): > 100 µM | TGI (SF-539 CNS): > 100 µM | TGI (NCI-H23 lung): > 100 µM | TGI (MALME-3M melanoma): > 100 µM | TGI (NCI-H460 lung): > 100 µM | TGI (SK-OV-3 ovarian): > 100 µM | TGI (HT29 colon): > 100 µM | TGI (SNB-78 CNS): > 100 µM | TGI (ACHN renal): > 100 µM | TGI (K-562 leukemia): > 100 µM | TGI (LOX IMVI melanoma): > 100 µM | TGI (TK-10 renal): > 100 µM | TGI (DMS 273 small cell lung): > 100 µM | TGI (A498 renal): > 100 µM | TGI (786-0 renal): > 100 µM | TGI (XF 498 CNS): 86.7 µM | TGI (SF-268 CNS): > 100 µM | TGI (SNB-75 CNS): > 100 µM | TGI (LXFL 529 NSCLC): > 100 µM | TGI (UACC-62 melanoma): > 100 µM | TGI (SF-295 CNS): > 100 µM | TGI (SK-MEL-28 melanoma): > 100 µM | TGI (M14 melanoma): > 100 µM | TGI (SN12C renal): > 100 µM | TGI (KM12 colon): > 100 µM | TGI (NCI-H226 lung): > 100 µM | TGI (OVCAR-3 ovarian): > 100 µM | TGI (IGROV1 ovarian): > 100 µM | TGI (MOLT-4 leukemia): > 100 µM | TGI (HL-60(TB) leukemia): > 100 µM | TGI (HOP-18 NSCLC): 80.7 µM | TGI (HCT-15 colon): > 100 µM | TGI (SK-MEL-2 melanoma): > 100 µM | TGI (SK-MEL-5 melanoma): > 100 µM | TGI (M19-MEL melanoma): > 100 µM | TGI (CCRF-CEM leukemia): > 100 µM | TGI (UO-31 renal): > 100 µM | TGI (HCT-116 colon): > 100 µM | TGI (RXF 393 renal): > 100 µM | TGI (OVCAR-8 ovarian): > 100 µM

O=C1[C@@H]2C(c3ccncc3)=NO[C@@H]2C(=O)N1c1ccc(Cc2ccc(N3C(=O)[C@H]4C(c5ccncc5)=NO[C@H]4C3=O)cc2)cc1
TGI (DMS 114 small cell lung): > 100 µM | TGI (SW-620 colon): > 100 µM | TGI (U251 CNS): > 100 µM | TGI (UACC-257 melanoma): > 100 µM | TGI (OVCAR-4 ovarian): > 100 µM | TGI (A549 NSCLC): > 100 µM | TGI (SF-539 CNS): > 100 µM | TGI (NCI-H23 lung): > 100 µM | TGI (HOP-92 NSCLC): > 100 µM | TGI (CAKI-1 renal): > 100 µM | TGI (MALME-3M melanoma): > 100 µM | TGI (EKVX NSCLC): > 100 µM | TGI (NCI-H460 lung): > 100 µM | TGI (SK-OV-3 ovarian): > 100 µM | TGI (HCC-2998 colon): > 100 µM | TGI (HT29 colon): > 100 µM | TGI (SNB-78 CNS): > 100 µM | TGI (ACHN renal): > 100 µM | TGI (K-562 leukemia): > 100 µM | TGI (LOX IMVI melanoma): > 100 µM | TGI (TK-10 renal): > 100 µM | TGI (DMS 273 small cell lung): > 100 µM | TGI (A498 renal): > 100 µM | TGI (786-0 renal): > 100 µM | TGI (SF-268 CNS): > 100 µM | TGI (SNB-75 CNS): > 100 µM | TGI (DLD-1 colon): > 100 µM | TGI (LXFL 529 NSCLC): > 100 µM | TGI (UACC-62 melanoma): > 100 µM | TGI (RPMI-8226 leukemia): > 100 µM | TGI (SF-295 CNS): > 100 µM | TGI (SK-MEL-28 melanoma): > 100 µM | TGI (M14 melanoma): > 100 µM | TGI (OVCAR-5 ovarian): > 100 µM | TGI (COLO 205 colon): > 100 µM | TGI (SN12C renal): > 100 µM | TGI (KM12 colon): > 100 µM | TGI (NCI-H226 lung): > 100 µM | TGI (OVCAR-3 ovarian): > 100 µM | TGI (IGROV1 ovarian): > 100 µM | TGI (MOLT-4 leukemia): > 100 µM | TGI (HL-60(TB) leukemia): > 100 µM | TGI (HOP-18 NSCLC): > 100 µM | TGI (HCT-15 colon): > 100 µM | TGI (SK-MEL-2 melanoma): > 100 µM | TGI (SK-MEL-5 melanoma): > 100 µM | TGI (M19-MEL melanoma): > 100 µM | TGI (RXF-631 renal): > 100 µM | TGI (CCRF-CEM leukemia): > 100 µM | TGI (UO-31 renal): > 100 µM | TGI (RXF 393 renal): > 100 µM | TGI (KM20L2 colon): > 100 µM | TGI (OVCAR-8 ovarian): > 100 µM | TGI (HOP-62 NSCLC): > 100 µM

CC(=O)OC1CC2C(C)(C)OC(=O)CC(OC(C)=O)[C@]2(C)C2CCC3(C)C(=CCC3c3ccoc3)[C@]12C (stereo not given in full)
TGI (DMS 114 small cell lung): 96.4 µM | TGI (SNB-19 CNS): > 100 µM | TGI (NCI-H522 lung): 81.2 µM | TGI (SW-620 colon): > 100 µM | TGI (U251 CNS): > 100 µM | TGI (OVCAR-4 ovarian): > 100 µM | TGI (A549 NSCLC): > 100 µM | TGI (SF-539 CNS): 93.3 µM | TGI (NCI-H23 lung): > 100 µM | TGI (HOP-92 NSCLC): 29.9 µM | TGI (CAKI-1 renal): > 100 µM | TGI (MALME-3M melanoma): 92.6 µM | TGI (EKVX NSCLC): > 100 µM | TGI (NCI-H460 lung): > 100 µM | TGI (SK-OV-3 ovarian): 54.1 µM | TGI (HCC-2998 colon): 52.4 µM | TGI (HT29 colon): 39.3 µM | TGI (SNB-78 CNS): > 100 µM | TGI (ACHN renal): > 100 µM | TGI (K-562 leukemia): > 100 µM | TGI (LOX IMVI melanoma): > 100 µM | TGI (TK-10 renal): > 100 µM | TGI (DMS 273 small cell lung): 41.1 µM | TGI (A498 renal): > 100 µM | TGI (786-0 renal): > 100 µM | TGI (XF 498 CNS): 36 µM | TGI (SF-268 CNS): > 100 µM | TGI (SNB-75 CNS): 83.5 µM | TGI (DLD-1 colon): 31.3 µM | TGI (LXFL 529 NSCLC): > 100 µM | TGI (UACC-62 melanoma): > 100 µM | TGI (RPMI-8226 leukemia): > 100 µM | TGI (SF-295 CNS): 98.3 µM | TGI (SK-MEL-28 melanoma): > 100 µM | TGI (M14 melanoma): 46.5 µM | TGI (OVCAR-5 ovarian): > 100 µM | TGI (COLO 205 colon): 29.8 µM | TGI (SN12C renal): > 100 µM | TGI (KM12 colon): > 100 µM | TGI (NCI-H226 lung): 69.6 µM | TGI (OVCAR-3 ovarian): 60 µM | TGI (IGROV1 ovarian): 82.8 µM | TGI (MOLT-4 leukemia): 52 µM | TGI (HL-60(TB) leukemia): > 100 µM | TGI (HCT-15 colon): > 100 µM | TGI (SK-MEL-2 melanoma): 25.1 µM | TGI (SR leukemia): 50.8 µM | TGI (SK-MEL-5 melanoma): > 100 µM | TGI (M19-MEL melanoma): 52.3 µM | TGI (CCRF-CEM leukemia): 87.3 µM | TGI (UO-31 renal): > 100 µM | TGI (HCT-116 colon): 58.6 µM | TGI (RXF 393 renal): > 100 µM | TGI (KM20L2 colon): > 100 µM | TGI (OVCAR-8 ovarian): 87.1 µM | TGI (HOP-62 NSCLC): 96.6 µM

— PubChem BioAssay (NCI)
